Here are results for five compounds from US5281263A, “Azo dyes containing a carboxy group” (Imperial Chemical Industries PLC, priority 1991, dated 1994).

Data set [1] in a line: solubility of the dye in water. The format is physicochemical.
The nature of data set [2]: absorption of the dye: lambda max and E max. Type of data set: physicochemical.

One may read the solubility as the concentration that dissolves in the medium under given conditions. A low value points to a poorly soluble substance.

Values after ≈ are worked out from the molar mass of the structure shown.

Compound `O=C(O)c1ccc(Nc2ccc3cc(S(=O)(=O)O)c(N=Nc4ccc(N=Nc5cccc(C(=O)O)c5)c5ccccc45)c(O)c3c2)cc1` [Example 1] gave a solubility in data set [1] (25° C., pH 9.5) of roughly 80 mg/mL (≈ 121 mM). Further, in data set [2], the E max entry is given as “about 24,500” and the lambda max was found to be 558 nm.

With `O=C(O)c1ccc(N=Nc2ccc(N=Nc3c(S(=O)(=O)O)cc4ccc(Nc5ccc(C(=O)O)cc5)cc4c3O)c3ccccc23)cc1` [Example 2], the solubility in data set [1] (25° C.) was roughly 80 mg/mL (≈ 121 mM). For the same compound, in data set [2], the E max result was “about 22,000” and the lambda max is reported as 567 nm.

For `O=C(O)c1ccc(N=Nc2ccc(N=Nc3c(S(=O)(=O)O)cc4ccc(Nc5cccc(C(=O)O)c5)cc4c3O)c3ccccc23)cc1` [Example 3], the solubility in data set [1] (temperature and pH not given) is roughly 80 mg/mL (≈ 121 mM). Also, in data set [2], the E max result was “about 23,500” and the lambda max was 553 nm.

In turn, `O=C(O)c1ccc(Nc2ccc3cc(S(=O)(=O)O)c(N=Nc4ccc(N=Nc5cccc(C(=O)O)c5)c5ccc(S(=O)(=O)O)cc45)c(O)c3c2)cc1` [Example 4] came in with a solubility in data set [1] (25° C., pH 8.5) of 130 to 150 mg/mL (≈ 175 to 202 mM). Besides, in data set [2], the E max result is on record as “about 24,000” and the lambda max is on record as 588 nm.

Take `O=C(O)c1cccc(N=Nc2ccc(N=Nc3c(S(=O)(=O)O)cc4ccc(Nc5cccc(C(=O)O)c5)cc4c3O)c3cc(S(=O)(=O)O)ccc23)c1` [Example 6]: in data set [1] (temperature and pH not given), the solubility is roughly 100 mg/mL (≈ 135 mM). For the same compound, in data set [2], the E max entry is “about 15,000” and the lambda max is given as 578 nm.
